Results published in article PMC6271893, “In Vitro Antioxidant and Cytotoxic Activity of Some Synthetic Riparin-Derived Compounds” (Molecules, 2014).
Converted amounts (≈) assume the structure as drawn. Where two headings read alike, the source gives them in different places. Marks after values point to notes of the source that are not given here.

Assays:
[1] = system: murine peritoneal macrophages RAW 264.7; experiment: Cytotoxicity assay on RAW 264.7 (LDH release); assay type: cell-based
Procedure: Murine peritoneal macrophages of the cell line RAW 264.7 were obtained from the American Type Culture Collection (ATCC, Rockville, MD, USA), and cultured at 37 °C with CO2 at 5% in DMEM-F12 supplemented with 10% fetal bovine serum (FBS; Hyclone^TM, Logan, UT, USA) and gentamicin (50 μg/mL). RAW 264.7 cells (5 × 10^5 cells/mL) were cultured and incubated for 24 h with the riparins A, B, C, D, E and F at the final concentration of 25 µg/mL […]. The cytotoxicity assay was performed by LDH assay. The release of LDH (cytoplasmic lactate dehydrogenase enzyme) was determined using 50 μL of culture supernatant with 100 μL of LDH substrate plus and 5 μL ferric alum (5 mg/mL), at 37 °C for 3 min. Then, 100 μL of the NAD solution and phenazine methosulphate were added to the mixture, maintaining the temperature at 37 °C for 5 min (Labrax Commercial Kit, Clontech, Palo Alto, CA, USA). LDH is an oxidoreductase which catalyzes the interconversion of lactate and pyruvate and, for being a stable cytosolic enzyme, after damage to cell membrane it is released in the cellular environment and because of this LDH is an indirect indicator of cytotoxicity. LDH concentration was determined by colorimetry at 492 nm. The specific release of LDH was calculated as percentage of the controls (not treated cells as negative control and cells treated with 1%Triton X-100 as positive control).
(§1) The obtained data were evaluated by one-way analysis of variance (ANOVA) followed by a Student Newman Keuls post hoc test. The data concerning release percentage of cytoplasmatic enzyme lactate dehydrogenase (LDH) were reported by mean ± standard deviation and evaluated by one-way analysis of variance (ANOVA) followed by a Tukey post hoc test. In all cases differences were considered significant if p < 0.05, the means and respective standard errors were analyzed in the Graph Pad Prism version 5.0 for Windows software (GraphPad Software Incorporated, San Diego, CA, USA).

[2] = Scavenging activity of nitric oxide (nitrite production induced by SNP, Griess reaction); settings: for IC50 Nitrite: nitrite formation
Procedure: (§2) For the in vitro antioxidant tests the samples were emulsified in 0.05% Tween 80 dissolved in saline 0.9% (used as the vehicle) and tested at concentrations of 1, 5, 10, 25 and 100 µg/mL. The samples for the cytotoxicity tests were diluted in pure and sterile DMSO and tested at concentrations of 25 µg/mL.
Nitric oxide was generated from spontaneous decomposition of sodium nitroprusside in 20 mM phosphate buffer (pH 7.4). Once generated, NO interacts with oxygen to produce nitrite ions, which are measured by the Griess reaction. The reaction mixture (1 mL) containing 10 mM sodium nitroprusside (SNP) in phosphate buffer and the riparins at various concentrations of 1, 5, 10, 25 and 100 µg/mL were incubated at 37 °C for 1 h. A 0.5 mL aliquot was taken and homogenized with 0.5 mL Griess reagent. The absorbance of chromophore was measured at 540 nm. Percent inhibition of generated nitric oxide was measured by comparing the absorbance values of negative controls (only 10 mM sodium nitroprusside and vehicle) to assay preparations. Results were expressed as percentage of nitrite formed by SNP alone.

[3] = Hydroxyl radical scavenging activity (2-deoxyribose degradation, Fenton reaction); settings: for IC50 OH radical: hydroxyl radical content
Procedure: as §2
The formation of OH radicals from Fenton reagents was quantified using the condensation product of the 2-deoxyribose oxidative degradation product, malonaldehyde, with 2-thiobarbituric acid (TBA). Briefly, typical reactions were started by the addition of Fe^2+ (FeSO4 6 mM final concentration) to solutions containing 5 mM 2-deoxyribose, 100 mM H2O2 and 20 mM phosphate buffer (pH 7.2). In order to determine the antioxidant activity of the riparins against the hydroxyl radical, individual tests were performed on each one of the six substances, in which different concentrations of the riparins were added to the system before Fe^2+ addition (Rip-A; Rip-B; Rip-C; Rip-D; Rip-E and Rip-F). Reactions were carried out for 15 min at room temperature and were quenched by the addition of phosphoric acid 4% (v/v), followed by TBA 1% (thiobarbituric acid, v/v in 50 μL NaOH). The solutions were boiled for 15 min to 95 °C and then cooled at room temperature. The absorbance was measured at 532 nm and the results were expressed as MDA equivalents formed by Fe^2+ and H2O2 [25].

[4] = Antioxidant potential against the formation of TBARS (AAPH-induced lipid peroxidation of egg yolk homogenate); settings: for IC50 TBARS: TBARS production
Procedure: as §2
The TBARS assay was employed to quantify lipid peroxidation and an adapted TBARS method was used to measure the antioxidant capacity of the riparins (Rip-A, -B, -C, -D, -E and -F) using egg yolk homogenate as lipid rich substrate. Egg yolk was homogenized (1% w/v) in 20 mM phosphate buffer (pH 7.4), 1 mL of homogenate was sonicated and then homogenized with 0.1 mL of the samples at concentrations of 1, 5, 10, 25 and 100 µg/mL. Lipid peroxidation was induced by the addition of 0.1 mL of 2,2'-azobis(2-methylpropionamidine) dihydrochloride solution (AAPH; 0.12 M). Control was evaluated with only the vehicle. Reactions were carried out for 15 minutes at 37 °C. After cooling, samples (0.5 mL) were centrifuged with 0.5 mL of trichloroacetic acid (15%) at 1,200 ×g for 10 min. An aliquot of 0.5 mL from supernatant was mixed with 0.5 mL TBA (0.67%) and heated at 95 °C for 30 min. After cooling, sample absorbance was measured using a spectrophotometer at 532 nm. The results were expressed as percentage of TBARS formed by AAPH alone (induced control).

[5] = system: HEP-2 (laryngeal carcinoma); experiment: Cytotoxicity against tumor cell lines (MTT); assay type: cell-based; settings: Homo sapiens, 72 h, 95% confidence interval in brackets, read-out: IC50 values and confidence intervals, HEP-2
Procedure: (§3) Cells were maintained at 37 °C with 5% CO2 in RPMI 1640 (Himedia^TM, Mumbai, India) or DMEM medium (Gibco^TM, Grand Island, NY, USA) supplemented with 2 mM glutamine, 100 U/mL penicillin, 100 μg/mL streptomycin. The antiproliferative activities of riparins were evaluated in the following human cancer cells lineage: HL-60 (pro-myelocytic leukemia), NCIH-292 (lung carcinoma), and HEP-2 (laryngeal carcinoma) obtained from the Rio de Janeiro Cell Bank (RJ-Brazil). For all experiments, 100 µL of tumor cells were plated in 96-well plates (6 × 10^4 cells/cm^2 for adherent cells or 9 × 10^4 cells/cm^2 for leukemia). Tested compounds (0.1–25 μg/mL) dissolved in 1% DMSO (100 µL) were added to each well and incubated for 72 h. Control groups received the same amount of DMSO. After 69 h of treatment, 25 μL of MTT (5 mg/mL) were added. Three hours later, the MTT formazan product was dissolved in 100 μL of DMSO, and absorbance was measured at 595 nm using a multiplate reader (Thermo Plate®, TP Reader, São Paulo, SP, Brasil).
as §1

[6] = system: HL-60 (pro-myelocytic leukemia); experiment: Cytotoxicity against tumor cell lines (MTT); assay type: cell-based; settings: Homo sapiens, 72 h, 95% confidence interval in brackets, read-out: IC50 values and confidence intervals, HL-60
Procedure: as §3, §1

[7] = system: NCIH-292 (lung carcinoma); experiment: Cytotoxicity against tumor cell lines (MTT); assay type: cell-based; settings: Homo sapiens, NCI-H292, 72 h, 95% confidence interval in brackets, read-out: IC50 values and confidence intervals, NCIH-292
Procedure: as §3, §1

[8] = system: tumor cells lines (leukemia and lung and laryngeal carcinoma); experiment: Cytotoxicity on tumor cell lines, summary statements over the lines (MTT); assay type: cell-based; settings: Homo sapiens
Procedure: as §2, §3

[9] = 140 μg/mL (standard antioxidant)

Molecule	Nitrite Production (% induced by SNP) ([2]; 1 μg/mL)	Nitrite Production (% induced by SNP) ([2]; 5 μg/mL)	Nitrite Production (% induced by SNP) ([2]; 10 μg/mL)	Nitrite Production (% induced by SNP) ([2]; 25 μg/mL)	Nitrite Production (% induced by SNP) ([2]; 100 μg/mL)	IC50 Nitrite [2] [mg/L]	2-Deoxyribose degradation (%) ([3]; 1 μg/mL)	2-Deoxyribose degradation (%) ([3]; 5 μg/mL)	2-Deoxyribose degradation (%) ([3]; 10 μg/mL)	2-Deoxyribose degradation (%) ([3]; 25 μg/mL)	2-Deoxyribose degradation (%) ([3]; 100 μg/mL)	IC50 OH radical [3] [mg/L]	TBARS levels (% AAPH) ([4]; 1 μg/mL)	TBARS levels (% AAPH) ([4]; 5 μg/mL)	TBARS levels (% AAPH) ([4]; 10 μg/mL)	TBARS levels (% AAPH) ([4]; 25 μg/mL)	TBARS levels (% AAPH) ([4]; 100 μg/mL)	IC50 TBARS [4] [mg/L]	IC50 [6] [mg/L]	IC50 [7] [mg/L]	further results
Triton X-100 [Triton X-100 1%, reference compound]	–	–	–	–	–	–	–	–	–	–	–	–	–	–	–	–	–	–	–	–	LDH % Release [1]: 99.96%
COc1ccc(CCNC(=O)c2ccccc2)cc1OC [Rip-B, N-[2-(3,4-Dimethoxyphenyl)ethyl]benzamide]	75.8 ± 1.02 ^a %	34.1 ± 1.85 ^a %	29.1 ± 2.00 ^a %	23.1 ± 0.97 ^a %	20.6 ± 0.98 ^a %	0.7948 (≈ 2.79 µM)	98.4 ± 0.39 ^a %	79.8 ± 1.34 ^a %	58.5 ± 0.85 ^a %	47.7 ± 0.44 ^a %	47.2 ± 0.43 ^a %	1.639 (≈ 5.74 µM)	44.5 ± 1.31 ^a %	40.4 ± 0.85 ^a %	38.3 ± 1.05 ^a %	36.5 ± 1.21 ^a %	29.7 ± 1.31 ^a %	1.032 (≈ 3.62 µM)	> 25	> 25	IC50 [5]: > 25 mg/L; LDH % Release ([1]; 25 µg/mL, RAW 264.7): 17.31%; melting point: 90 °C
Cc1c(C)c2c(c(C)c1O)CCC(C)(C(=O)O)O2 (centres unmarked) [Trolox, reference compound]	–	–	–	–	–	–	–	–	–	–	–	–	–	–	–	–	–	–	–	–	Nitrite Production (% induced by SNP) [2, 9]: 40.2 ± 2.80 ^a %; 2-Deoxyribose degradation (%) [3, 9]: 21.4 ± 0.95 ^a %; TBARS levels (% AAPH) [4, 9]: 55.3 ± 6.48 ^a %
O=C(NCCc1ccccc1)c1ccccc1 [Rip-A, N-Phenethylbenzamide]	75.1 ± 1.31 ^a %	29.1 ± 0.61 ^a %	29.2 ± 2.05 ^a %	24.3 ± 0.62 ^a %	20.4 ± 1.20 ^a %	0.8404 (≈ 3.73 µM)	97.1 ± 0.78 ^a %	76.9 ± 1.10 ^a %	54.5 ± 0.85 ^a %	49.6 ± 0.89 ^a %	44.8 ± 0.30 ^a %	1.501 (≈ 6.66 µM)	40.9 ± 1.77 ^a %	38.1 ± 0.49 ^a %	36.7 ± 0.66 ^a %	35.1 ± 0.88 ^a %	25.8 ± 0.48 ^a %	1.147 (≈ 5.09 µM)	> 25	> 25	IC50 [5]: > 25 mg/L; LDH % Release ([1]; 25 µg/mL, RAW 264.7): 28.13%
O=C(NCCc1ccccc1)c1c(O)cccc1O [Rip-E, 2,6-Dihydroxy-N-phenethylbenzamide]	65.9 ± 1.30 ^a %	37.7 ± 0.95 ^a %	25.1 ± 1.37 ^a %	20.1 ± 0.71 ^a %	15.4 ± 1.11 ^a %	0.5224 (≈ 2.03 µM)	79.9 ± 0.64 ^a %	62.2 ± 2.14 ^a %	53.4 ± 1.79 ^a %	51.4 ± 1.47 ^a %	49.4 ± 0.85 ^a %	1.054 (≈ 4.1 µM)	41.4 ± 0.69 ^a %	38.6 ± 0.63 ^a %	35.5 ± 0.37 ^a %	31.3 ± 0.76 ^a %	28.2 ± 0.39 ^a %	0.7821 (≈ 3.04 µM)	1.9 (≈ 7.38 µM)	> 25	LDH % Release ([1]; 25 µg/mL, RAW 264.7): 96.91%; LDH % Release ([1]; 25 µg/mL, RAW 264.7, listed as riparin E): greater than 80%; IC50 ([8]; leukemia and lung and laryngeal carcinoma, read-out: IC50 values on neoplastic cells (range over cell lines)): 1.9 to 11.4 mg/L (≈ 7.38 to 44.3 µM); inhibition at 25 µg/mL ([8]; tumor cells lines, cytotoxicity samples tested at 25 µg/mL, read-out: cell growth inhibition rates): > 70%; melting point: 155 °C
